Columns and labels:
[1] = Body weight, food intake, serum parameters and adiposity in leptin-deficient ob/ob mice; assay type: in vivo
Procedure: FIG. 4. Effects of prieurianin on blood insulin, glucose and NEFA levels. Normal and ob/ob mice were treated with 5 mg/kg of prieurianin and serum samples were then collected for (FIG. 4A) insulin; (FIG. 4B) glucose; and (FIG. 4C) non-esterified fatty acid (NEFA) profiling. Results are means of three animals per group for each treatment. Blue column, normal C57BL/6J; and red column, leptin-deficient ob/ob mice.
FIG. 5. Effects of prieurianin on adiposity in ob/ob mice. The leptin-deficient ob/ob mice were treated with 5 mg/kg of prieurianin and subcutaneous and visceral adipose tissues were excised and weighed. Results are means of three to five animals per group as indicated (n).
Prieurianin was administered intraperitoneally to 12-14 week-old normal C57BL/6J mice and the genetically leptin-deficient ob/ob mice (2 or 5 mg/kg) twice a week for two weeks. Controls received equivolume injections of drug vehicle. Body weight and food intake were measured every three days, and blood samples were collected at the end of the experiment.
Obesity contributes to hypertension, high serum cholesterol, low HDL cholesterol, and hyperglycemia, thus potentially leading to higher risk of cardiovascular disease. Abdominal obesity especially correlates with metabolic risk factors. The leptin-deficient ob/ob mice are hyperlipidemic, and hyperglycemic. To test whether prieurianin altered the metabolic or endocrinological parameters in addition to appetite, the serum lipid profile, insulin and glucose levels were measured.
To further examine the effects of prieurianin on the adiposity of the normal C57BL/6J and the ob/ob mice, we measured their visceral and subcutaneous body fat.

NIH-3T3/L1 preadipocytes = assay type: cell-based; details: 2 μM
Procedure: FIG. 7D. Flow cytometric analysis of annexin V binding to phosphatidylserine, apoptotic cells are on the upper right quadrant. All experiments were conducted in triplicate.

## C=C1[C@@H]([C@@]2(C)[C@@H](OC(C)=O)CC(=O)O[C@](C)(COC(C)=O)[C@@H]2C(=O)OC)[C@@H](OC=O)[C@H](OC(=O)[C@H](O)[C@H](C)CC)[C@@]2(C)[C@H](c3ccoc3)CC(=O)[C@]12O [prieurianin]
[1]
  serum PLTP activity: decrease in serum PLTP activity
[1]; 5 mg/kg
  NEFA levels: only a modest decrease in NEFA levels
  hyperglycemia (glucose level): reversed to levels comparable to those of normal controls
  insulin levels: reduce by approximately three to four-fold
  subcutaneous and visceral adipose tissues: significantly reduced both the subcutaneous and visceral adipose tissues
[1]; 5 mg/kg group, relative to untreated or vehicle treated controls
  decrease in food intake: ≤ 50%
[1]; 5 mg/kg, vs untreated and vehicle-treated controls
  reduction of total body fat: greater than 50%
[1]; 2 or 5 mg/kg i.p. twice a week, after two weeks
  reduction in total body weight: up to 10%
[1]; serum
  total cholesterol level: significantly lower
  triglyceride levels: no significant changes
[1]; vs untreated and vehicle-treated
  HDL levels: approximately two-fold lower
NIH-3T3/L1 preadipocytes
  apoptosis (annexin V binding to phosphatidylserine): did not differentially induce apoptosis

— patent publication US20100284925A1, “Small Molecule Intervention for Obesity” (priority 2006, published 2010)
